Measurements from publication PMC5171801, “Identification and Characterization of Roseltide, a Knottin-type Neutrophil Elastase Inhibitor Derived from Hibiscus sabdariffa” (Scientific Reports, 2016).
Ends that are not written are not given here.

Assays:
Acid stability = type: physicochemical; details: in 0.2 M HCl, 37 °C, 0-120 min, RP-UHPLC peak area as % of initial, n = 3
Protocol: 0.1 M of purified roseltide rT1 was dissolved in 0.2 M HCl or phosphate buffered saline (PBS) (control) and incubated at 37 °C. Samples were collected at various time points (0, 15, 30, 45, 60 and 120 min).

[1] = biological target: T1, Human neutrophil elastase (HNE) (Homo sapiens, UniProt P08246); assay: Human neutrophil elastase inhibition assay; type: biochemical; details: 1.75 U/mL HNE, 0.6 mM N-Methoxysuccinyl-Ala-Ala-Pro-Val p-nitroanilide, 100 mM Tris buffer pH 8.0, 37 °C, absorbance 405 nm for 1 h, normalized initial velocity, mean n = 3; read-out: IC50, enzymatic activity of human neutrophil elastase
T1 construct: purchased Sigma-Aldrich or ThermoFisher Scientific (general statement only)
T1 sequence (P08246 30-267): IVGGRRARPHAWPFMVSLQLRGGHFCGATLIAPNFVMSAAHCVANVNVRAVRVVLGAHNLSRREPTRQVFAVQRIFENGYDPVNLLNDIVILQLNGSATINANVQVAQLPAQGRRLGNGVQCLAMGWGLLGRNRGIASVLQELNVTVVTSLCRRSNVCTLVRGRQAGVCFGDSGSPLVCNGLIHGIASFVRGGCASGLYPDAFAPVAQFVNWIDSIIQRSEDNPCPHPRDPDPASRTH
Protocol: Human neutrophil elastase (HNE) activity was determined by measuring the release of p-nitroanilide at 405 nm at 37 °C using N-Methoxysuccinyl-Ala-Ala-Pro-Val p-nitroanilide as substrates. Purified roseltide rT1 was incubated with 1.75 U/mL HNE and 0.6 mM substrate in 100 mM Tris buffer (pH 8.0) at 37 °C; absorbance was measured continuously for 1 h. […] The results were presented as normalized initial velocity.

trypsin = trypsin (Bos taurus, UniProt P00760); details: 0.1 M peptide, 100 mM Tris buffer pH 8, trypsin 50:1 (w/v), 37 °C, 0-120 min, RP-UHPLC peak area, n = 3
Protocol: (§1) 0.1 M of purified roseltide rT1 was dissolved in 100 mM Tris buffer (pH 8) and incubated with trypsin (Catalog number: T1426, Roche Applied Science, US) in a 50:1 (w/v) ratio at 37 °C. 0.1 M of purified roseltide rT1 was dissolved in 0.2 M HCl and incubated with pepsin (Catalog number: 03117901001, Roche Applied Science, US) in a 50:1 (w/v) ratio at 37 °C. […] Samples were collected at various time points (0, 15, 30, 45, 60 and 120 min).
(§2) All collected samples from various stability assays were analyzed by RP-UHPLC with a linear gradient of mobile phase A (0.05% TFA/H2O) and mobile phase B (0.05% TFA/ACN) on C18 column (3.6 μm particle size; 2.1 mm internal diameter; 10 cm length) (Phenomenex, US). The resulting peaks were collected and the identified by MALDI-TOF MS. The results were expressed as percentage of initial concentration using the peak area of the UHPLC profile.

pepsin = pepsin (Sus scrofa, UniProt P00791); details: 0.1 M peptide, 0.2 M HCl, pepsin 50:1 (w/v), 37 °C, 0-120 min, RP-UHPLC peak area, n = 3
Protocol: as §1, §2

PAR2-cAMP-CHO cells = assay: Glosensor cAMP assay, neutrophil elastase-stimulated cAMP accumulation; type: cell-based, Chinese Hamster; details: co-incubation of HNE with peptide; CHO-K1 co-expressing PAR2 and Glosensor cAMP biosensor; luminescence 20 min, area under the curve; n = 3
Protocol: Huh7 (human liver carcinoma cells), A549 (human lung adenocarcinoma epithelial cells) cells, and Chinese Hamster Ovary-K1 cells (CHO-K1) were cultured in Dulbecco’s Modified Eagle’s Medium (DMEM)/Ham’s F12 containing 15 mM HEPES and L-glutamine and supplemented with 10% fetal bovine serum, 100 U/mL of penicillin, and streptomycin. The cells were grown in a 5% CO2 humidified incubator at 37 °C. CHO-K1 cells were transfected with pGlosensor-20F plasmid by electroporation and selected using 500 μg/mL hygromycin. CHO-K1 cells stably expressing the pGlosensor-20F construct (cAMP-CHO) were then transfected with pCMV6-XL5 encoding PAR2 receptor (NM 005242.3) and selected using 500 μg/mL G418. Stable cell lines co-expressing both pGlosensor-20F and PAR2 receptor constructs (PAR2-cAMP-CHO) were maintained with 500 μg/mL hygromycin and 500 μg/mL G418.
Glosensor cAMP assays were performed according to the manufacturer’s instructions. […] Luminescent intensity was measured using a microplate reader (Tecan Infinite 200 Pro, Switzerland); the plate was pre-read for 30 s to establish basal luminescent level. Following treatment, luminescent levels were continuously monitored for 20 min. The results are presented as fold change relative to basal luminescent levels and were quantified using the area under the curve.

Human serum stability = type: in vitro ADME; details: 0.1 M peptide, 25% human serum in DMEM without phenol red, 37 °C, 0, 24 and 48 h, ethanol precipitation, RP-UHPLC peak area, n = 3
Protocol: 0.1 M of purified roseltide rT1 was prepared in 25% human serum in DMEM medium without phenol red. The test samples were incubated at 37 °C. DALK was used as a positive control. Samples were collected at various time points (0, 24 and 48 h). The collected samples were subjected to protein precipitation with 100% ethanol and centrifugation at 180,000 g for 5 min at 4 °C. The supernatant was collected for analysis.

[2] = biological target: human neutrophil elastase (human) (UniProt P08246)

Chain of pepsin (P00791 60-385): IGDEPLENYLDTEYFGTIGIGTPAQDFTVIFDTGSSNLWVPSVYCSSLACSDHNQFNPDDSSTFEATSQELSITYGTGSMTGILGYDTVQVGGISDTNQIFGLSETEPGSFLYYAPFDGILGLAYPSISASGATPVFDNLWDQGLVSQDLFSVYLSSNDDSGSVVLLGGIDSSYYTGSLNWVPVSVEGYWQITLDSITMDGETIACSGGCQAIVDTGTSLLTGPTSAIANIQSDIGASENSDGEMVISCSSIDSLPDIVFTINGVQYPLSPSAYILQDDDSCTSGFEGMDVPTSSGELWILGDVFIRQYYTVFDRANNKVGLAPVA
Chain of trypsin (P00760 24-246): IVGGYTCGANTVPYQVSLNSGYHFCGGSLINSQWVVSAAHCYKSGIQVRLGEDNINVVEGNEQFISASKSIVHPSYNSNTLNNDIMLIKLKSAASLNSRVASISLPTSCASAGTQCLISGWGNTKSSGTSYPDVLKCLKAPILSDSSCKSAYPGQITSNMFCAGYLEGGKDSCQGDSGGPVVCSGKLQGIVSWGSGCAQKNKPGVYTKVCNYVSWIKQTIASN

CIPRGGICLVALSGCCNSPGCIFGICA (also: bicyclic or more (positions not given here)) [roseltide rT1, 27-residue cystine-knot peptide purified from Hibiscus sabdariffa calyces; disulfides Cys1-Cys16, Cys8-Cys21, Cys15-Cys26]
acid stability (resistance against degradation) (Acid stability): resistant
IC50 [1]: 470 nM
trypsin stability (resistance against degradation) (trypsin): resistant
pepsin stability (resistance against degradation) (pepsin): resistant
effect on human neutrophil elastase-stimulated cAMP accumulation (PAR2-cAMP-CHO cells): significantly suppressed
human serum stability (resistance against degradation) (Human serum stability): resistant

roseltide rT1 (peptide)
inhibition of the enzymatic activity of human neutrophil elastase (release of p-nitroanilide from N-methoxysuccinyl-Ala-Ala-Pro-Val p-nitroanilide, 405 nm, 37 °C, 100 mM Tris pH 8.0), IC50 [2]: 0.47 μM
